{
  "source": "patent US20230064363A1",
  "about": "“MATURATION OF SPERMATOGONIAL CELLS IN VITRO BT GROWTH FACTORS AND HORMONES” (B.G. Negev Technologies & Applications Ltd., at Ben-Gurion …, priority 2020, published 2023)",
  "key": {"Sertoli cells": {"system": "Sertoli cells", "settings": "cells isolated from seminiferous tubules ten days post-treatment, compared to control"}, "[1]": {"system": "spermatogonial cells isolated from CP-treated immature mice", "assay": "In vitro culture in MCS of seminiferous tubule cells from CP-treated immature mice; marker-positive cells by immunofluorescence staining", "format": "cell-based", "settings": "for ACROSIN (meiotic/postmeiotic marker), percentage of stained cells / BOULE (meiotic marker), percentage of stained cells / C-KIT (pre-meiotic marker), percentage of stained cells / CD9 (pre-meiotic marker), percentage of stained cells / CREM (meiotic marker), percentage of stained cells / GFR-a (pre-meiotic marker), percentage of stained cells / VASA (pre-meiotic marker), percentage of stained cells / a-6-INTG (pre-meiotic marker), percentage of stained cells: after 4-5 weeks culture in MCS, FSH 7.5 IU/ml, IL-1α 20 pg/ml or TNF-α 20 pg/ml from the beginning, testosterone 10^−7 M at the last week"}, "[2]": {"system": "isolated seminiferous tubule cells", "assay": "Isolated seminiferous tubule cells of 7-days-old mice cultured in methylcellulose culture system (MCS); marker-positive cells by immunofluorescence staining", "format": "cell-based"}, "[3]": {"system": "isolated seminiferous tubule cells", "assay": "Isolated seminiferous tubule cells of 7-days-old mice cultured in MCS; premeiotic and meiotic/postmeiotic marker RNA by qPCR", "format": "cell-based", "settings": "GM-CSF 0.1 or 1 ng/ml for 4 weeks; testosterone 10^−7 M added after 2 weeks in control medium for additional 2 weeks; after 4 weeks of culture; compared to control cultured cells"}, "[4]": {"settings": "10-days post last CP-injection, compared to control, p<0.001"}, "[5]": {"settings": "10-days post the last CP-injection, compared to control, p<0.001"}, "[6]": {"settings": "CP 100 mg/kg i.p. once a week for 3 weeks, day 10 post-treatment, compared to control, p<0.001"}, "[7]": {"settings": "compared to cells cultured in control medium"}, "[8]": {"settings": "GM-CSF 0.1 or 1 ng/ml for 4 weeks, testosterone 10^−7 M added after 2 weeks in control medium for additional 2 weeks, after 4 weeks of culture, compared to control cultured cells"}, "[9]": {"settings": "factor from the beginning of the culture (IL-1α 10 pg/ml; IL-1β or IL-6 1, 10 or 100 pg/ml), after 4 weeks of culture, compared to control medium"}, "[10]": {"settings": "IL-1α 10 pg/ml added only after 2 weeks of the culture for additional 2 weeks, compared to control medium"}},
  "note": "Where two headings read alike, the source gives them in different places.",
  "data": [
    {"molecule": "O=P1(N(CCCl)CCCl)NCCCO1", "note": "(centres unmarked) [CP, cyclophosphamide]", "values": [
      {"measurement": "number of Sertoli cells (vimentin)", "setting": "testes of immature mice; [4]", "result": "significantly reduced"},
      {"measurement": "number of peritubular cells (αSMA)", "setting": "testes of immature mice; [4]", "result": "significantly reduced"},
      {"measurement": "number of cells stained positive to the meiotic/postmeiotic marker acrosin", "setting": "testes of immature mice; [5]", "result": "significantly reduced"},
      {"measurement": "number of meiotic cells stained positive to BOULE", "setting": "testes of immature mice; [5]", "result": "significantly reduced"},
      {"measurement": "number of meiotic cells stained positive to CREM", "setting": "testes of immature mice; [5]", "result": "significantly reduced"},
      {"measurement": "number of premeiotic cells stained positive to CD9", "setting": "testes of immature mice; [5]", "result": "significantly reduced"},
      {"measurement": "number of premeiotic cells stained positive to VASA", "setting": "testes of immature mice; [5]", "result": "significantly reduced"},
      {"measurement": "number of premeiotic cells stained positive to c-KIT", "setting": "testes of immature mice; [5]", "result": "significantly reduced"},
      {"measurement": "number of premeiotic cells stained positive to α-6 INTEGRIN", "setting": "testes of immature mice; [5]", "result": "significantly reduced"},
      {"measurement": "testicular weight", "setting": "testes of immature mice; CP 100 mg/kg i.p. once a week for 3 weeks, all time points during 5 weeks after the last injection, compared to control mice, p<0.001", "result": "significantly decreased"},
      {"measurement": "seminiferous tubules histology", "setting": "testes of immature mice; CP 100 mg/kg i.p. once a week for 3 weeks, day 10 post-treatment, compared to control", "result": "significantly impaired"},
      {"measurement": "testicular cell count", "setting": "testes of immature mice; [6]", "result": "decreased"},
      {"measurement": "testicular weight", "setting": "testes of immature mice; [6]", "result": "decreased"},
      {"measurement": "seminiferous tubules histology", "setting": "testes of immature mice; CP 100 mg/kg i.p. once a week for 3 weeks, during 3 weeks after the last injection", "result": "impaired"},
      {"measurement": "time of most severe damage for the seminiferous tubules", "setting": "testes of immature mice; CP 100 mg/kg i.p. once a week for 3 weeks, weeks post-treatment", "result": "1-2 weeks"},
      {"measurement": "expression levels of androgen binding protein (ABP)", "setting": "Sertoli cells", "result": "did not significantly affect"},
      {"measurement": "expression levels of transferrin", "setting": "Sertoli cells; p<0.01", "result": "significantly increased"},
      {"measurement": "expression levels of FSH-receptor (FSH-R)", "setting": "Sertoli cells; p<0.05", "result": "significantly increased"},
      {"measurement": "expression levels of inhibin", "setting": "Sertoli cells; p<0.05", "result": "significantly increased"}
    ]},
    {"molecule": "C[C@]12CC[C@H]3[C@@H](CCC4=CC(=O)CC[C@@]43C)[C@@H]1CC[C@@H]2O", "note": "[testosterone, reference compound]", "values": [
      {"measurement": "ACROSIN (meiotic/postmeiotic marker), percentage of stained cells", "setting": "[1]", "result": 55.53, "unit": "%"},
      {"measurement": "BOULE (meiotic marker), percentage of stained cells", "setting": "[1]", "result": 22.15, "unit": "%"},
      {"measurement": "C-KIT (pre-meiotic marker), percentage of stained cells", "setting": "[1]", "result": 11.13, "unit": "%"},
      {"measurement": "CD9 (pre-meiotic marker), percentage of stained cells", "setting": "[1]", "result": 42.63, "unit": "%"},
      {"measurement": "CREM (meiotic marker), percentage of stained cells", "setting": "[1]", "result": 38.42, "unit": "%"},
      {"measurement": "GFR-a (pre-meiotic marker), percentage of stained cells", "setting": "[1]", "result": 24.03, "unit": "%"},
      {"measurement": "VASA (pre-meiotic marker), percentage of stained cells", "setting": "[1]", "result": 23.76, "unit": "%"},
      {"measurement": "a-6-INTG (pre-meiotic marker), percentage of stained cells", "setting": "[1]", "result": 12.23, "unit": "%"},
      {"measurement": "percentage of the meiotic/postmeiotic ACROSIN positive cells", "setting": "[1]; [7]", "result": "significantly increased"},
      {"measurement": "percentage of the other examined premeiotic and meiotic (or meiotic/postmeiotic) cells developed in MCS", "setting": "[1]; [7]", "result": "without any significant effect"},
      {"measurement": "percentage of the premeiotic CD9 positive cells", "setting": "[1]; [7]", "result": "significantly increased"}
    ]},
    {"molecule": "GM-CSF", "values": [
      {"measurement": "percentage of VASA positive cells", "setting": "[2]; [8]", "result": "significantly increased"},
      {"measurement": "percentage of acrosin positive cells", "setting": "[2]; [8]", "result": "did not significantly increase"},
      {"measurement": "percentages of BOULE positive cells", "setting": "[2]; [8]", "result": "significantly increased"},
      {"measurement": "BOULE expression levels (qPCR)", "setting": "[3]", "result": "significantly increased"},
      {"measurement": "PLZF expression level (qPCR)", "setting": "[3]", "result": "significantly increased"},
      {"measurement": "VASA expression level (qPCR)", "setting": "[3]", "result": "significantly increased"},
      {"measurement": "acrosin expression levels (qPCR)", "setting": "[3]", "result": "did not significantly increase"}
    ]},
    {"molecule": "IL-1β: interleukin 1 beta cytokine (PeproTech), 1, 10 or 100 pg/ml", "values": [
      {"measurement": "percentages of BOULE positive cells", "setting": "[2]; [9]", "result": "significantly increased"},
      {"measurement": "percentages of VASA positive cells", "setting": "[2]; [9]", "result": "significantly increased"},
      {"measurement": "percentages of acrosin positive cells", "setting": "[2]; [9]", "result": "significantly increased"}
    ]},
    {"molecule": "IL-6: interleukin-6 cytokine (PeproTech), 1, 10 or 100 pg/ml", "values": [
      {"measurement": "percentages of BOULE positive cells", "setting": "[2]; [9]", "result": "significantly increased"},
      {"measurement": "percentages of VASA positive cells", "setting": "[2]; [9]", "result": "significantly increased"},
      {"measurement": "percentages of acrosin positive cells", "setting": "[2]; [9]", "result": "significantly increased"}
    ]},
    {"molecule": "TNFα", "values": [
      {"measurement": "ACROSIN (meiotic/postmeiotic marker), percentage of stained cells", "setting": "[1]", "result": 36.4, "unit": "%"},
      {"measurement": "BOULE (meiotic marker), percentage of stained cells", "setting": "[1]", "result": 21.1, "unit": "%"},
      {"measurement": "C-KIT (pre-meiotic marker), percentage of stained cells", "setting": "[1]", "result": 29.05, "unit": "%"},
      {"measurement": "CD9 (pre-meiotic marker), percentage of stained cells", "setting": "[1]", "result": 33.52, "unit": "%"},
      {"measurement": "CREM (meiotic marker), percentage of stained cells", "setting": "[1]", "result": 36.1, "unit": "%"},
      {"measurement": "GFR-a (pre-meiotic marker), percentage of stained cells", "setting": "[1]", "result": 25.3, "unit": "%"},
      {"measurement": "VASA (pre-meiotic marker), percentage of stained cells", "setting": "[1]", "result": 31.67, "unit": "%"},
      {"measurement": "a-6-INTG (pre-meiotic marker), percentage of stained cells", "setting": "[1]", "result": 25.76, "unit": "%"},
      {"measurement": "percentage of the other examined premeiotic and meiotic (or meiotic/postmeiotic) cells developed in MCS", "setting": "[1]; [7]", "result": "without any significant effect"},
      {"measurement": "percentage of the premeiotic CD9 positive cells", "setting": "[1]; [7]", "result": "significantly increased"}
    ]},
    {"molecule": "IL-1α: interleukin 1 alpha cytokine (BioLegend 20 pg/ml; PeproTech 10 pg/ml) (protein, UniProt P01583 113-271, looked up) Interleukin-1 alpha: SAPFSFLSNVKYNFMRIIKYEFILNDALNQSIIRANDQYLTAAALHNLDEAVKFDMGAYKSSKDDAKITVILRISKTQLYVTAQDEDQPVLLKEMPEIPKTITGSETNLLFFWETHGTKNYFTSVAHPNLFIATKQDYWVCLAGGPPSITDFQILENQA", "values": [
      {"measurement": "percentages of BOULE positive cells", "setting": "[2]; [10]", "result": "increased the percentages of BOULE positive cells, but not significantly"},
      {"measurement": "percentages of VASA positive cells", "setting": "[2]; [10]", "result": "increased the percentages of VASA positive cells, but not significantly"},
      {"measurement": "percentages of acrosin cells", "setting": "[2]; [10]", "result": "increased the percentages of acrosin cells, but not significantly"},
      {"measurement": "percentages of BOULE positive cells", "setting": "[2]; [9]", "result": "significantly increased"},
      {"measurement": "percentages of VASA positive cells", "setting": "[2]; [9]", "result": "significantly increased"},
      {"measurement": "percentages of acrosin positive cells", "setting": "[2]; [9]", "result": "significantly increased"},
      {"measurement": "ACROSIN (meiotic/postmeiotic marker), percentage of stained cells", "setting": "[1]", "result": 34.27, "unit": "%"},
      {"measurement": "BOULE (meiotic marker), percentage of stained cells", "setting": "[1]", "result": 27.16, "unit": "%"},
      {"measurement": "C-KIT (pre-meiotic marker), percentage of stained cells", "setting": "[1]", "result": 16.5, "unit": "%"},
      {"measurement": "CD9 (pre-meiotic marker), percentage of stained cells", "setting": "[1]", "result": 23.4, "unit": "%"},
      {"measurement": "CREM (meiotic marker), percentage of stained cells", "setting": "[1]", "result": "30.45 + %"},
      {"measurement": "GFR-a (pre-meiotic marker), percentage of stained cells", "setting": "[1]", "result": 22.77, "unit": "%"},
      {"measurement": "VASA (pre-meiotic marker), percentage of stained cells", "setting": "[1]", "result": 20.8, "unit": "%"},
      {"measurement": "a-6-INTG (pre-meiotic marker), percentage of stained cells", "setting": "[1]", "result": 17.5, "unit": "%"},
      {"measurement": "percentage of premeiotic, meiotic and meiotic/postmeiotic examined cells developed in MCS", "setting": "[1]; [7]", "result": "did not show any significant effect"}
    ]}
  ]
}
